A word on the EC50: it is the concentration that produces a half-maximal response.

The test deals with T1, F508delCFTR (Homo sapiens, UniProt P13569, DEL508-508).
T1 construct: expressed in transfected cells; host or cells: CFBE41o- (human lung derived epithelial cell line), doxycycline-inducible expression
As to the kind of experiment: Cell Surface Expression-Horse Radish Peroxidase (CSE-HRP) assay. The test is classed as cell-based. Conditions: CFBE41o-F508delCFTR-HRP cells; for Maximum % activity (with co-corrector): with co-corrector (2 μM); for Maximum % activity (with co-corrector) / Maximum % activity (without co-corrector): normalized to on-plate positive control, highest concentration 20 μM. The gist of the method: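 CFBE41o- cells expressed F508delCFTR with HRP in the fourth exofacial loop, induced by 0.5 μg/mL doxycycline for 72 h at 37 °C. Compounds alone or with 2 μM co-corrector ran 18–24 h at 33 °C, 8-point 3-fold from 20 μM. Washed-cell luminol luminescence was normalized to DMSO and positive control, fitted sigmoidally for EC50 (three plates).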

Where [1] appears, read: test compound without co-corrector, 18-24 hours at 33° C., read-out: EC50 (without co-corrector).
The mark [2] stands for this setting: with co-corrector (2 μM of 3-[(2R,4R)-4-({[1-(2,2-difluoro-1,3-benzodioxol-5-yl)cyclopropyl]carbonyl}amino)-7-methoxy-3,4-dihydro-2H-chromen-2-yl]benzoic acid), read-out: EC50 (with co-corrector).

Read-outs that look alike come from different tables or passages of the source.

T1 sequence (P13569 with tags, fused parts or gaps DEL508-508): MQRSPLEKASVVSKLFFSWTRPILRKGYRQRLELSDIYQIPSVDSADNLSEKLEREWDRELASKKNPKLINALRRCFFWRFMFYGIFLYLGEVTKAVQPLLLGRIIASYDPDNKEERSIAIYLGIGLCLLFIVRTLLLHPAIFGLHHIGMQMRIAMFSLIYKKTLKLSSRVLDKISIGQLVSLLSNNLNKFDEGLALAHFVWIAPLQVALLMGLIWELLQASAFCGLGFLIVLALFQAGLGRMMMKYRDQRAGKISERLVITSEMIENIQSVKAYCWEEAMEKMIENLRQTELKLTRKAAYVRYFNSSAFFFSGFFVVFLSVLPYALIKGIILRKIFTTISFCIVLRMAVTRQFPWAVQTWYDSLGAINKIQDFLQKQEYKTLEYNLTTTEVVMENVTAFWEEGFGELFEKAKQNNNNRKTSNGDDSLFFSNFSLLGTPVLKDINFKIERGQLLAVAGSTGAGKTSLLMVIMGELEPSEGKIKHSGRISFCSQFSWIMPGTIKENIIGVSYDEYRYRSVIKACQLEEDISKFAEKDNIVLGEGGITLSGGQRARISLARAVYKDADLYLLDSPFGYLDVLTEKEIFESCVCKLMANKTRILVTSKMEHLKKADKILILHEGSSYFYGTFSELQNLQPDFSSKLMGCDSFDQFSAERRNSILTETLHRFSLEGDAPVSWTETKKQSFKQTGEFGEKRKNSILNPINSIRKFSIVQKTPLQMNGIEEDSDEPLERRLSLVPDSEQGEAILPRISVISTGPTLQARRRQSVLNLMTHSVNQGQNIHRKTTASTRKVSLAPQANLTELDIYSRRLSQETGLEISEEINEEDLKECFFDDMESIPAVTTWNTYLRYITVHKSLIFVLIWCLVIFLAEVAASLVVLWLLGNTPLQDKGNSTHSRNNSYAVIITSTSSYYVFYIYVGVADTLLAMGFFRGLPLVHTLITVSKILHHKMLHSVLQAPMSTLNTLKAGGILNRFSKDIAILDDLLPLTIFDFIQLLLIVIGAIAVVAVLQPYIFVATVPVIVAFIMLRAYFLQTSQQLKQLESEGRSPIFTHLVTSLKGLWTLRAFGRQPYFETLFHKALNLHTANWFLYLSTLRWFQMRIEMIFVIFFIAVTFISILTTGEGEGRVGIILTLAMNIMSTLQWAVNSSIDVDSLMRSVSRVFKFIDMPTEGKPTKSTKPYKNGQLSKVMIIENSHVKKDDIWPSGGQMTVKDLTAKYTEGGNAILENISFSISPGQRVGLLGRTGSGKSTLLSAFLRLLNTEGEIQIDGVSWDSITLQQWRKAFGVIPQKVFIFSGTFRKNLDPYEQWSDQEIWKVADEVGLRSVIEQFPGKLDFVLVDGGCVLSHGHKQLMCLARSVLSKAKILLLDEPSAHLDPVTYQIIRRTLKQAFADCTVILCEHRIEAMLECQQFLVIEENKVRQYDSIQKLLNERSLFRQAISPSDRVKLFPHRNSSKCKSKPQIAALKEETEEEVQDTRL

Consider `COc1ccc(C(F)(F)F)cc1CO[C@H]1[C@H](C(C)(C)C)[C@@H](C(=O)O)N(C(=O)[C@@H]2CCCCO2)[C@H]1c1ccccc1C` [Example 174, (2S,3R,4S,5S)-3-tert-butyl-4-{[2-methoxy-5-(trifluoromethyl)phenyl]methoxy}-5-(2-methylphenyl)-1-[(2S)-oxane-2-carbonyl]pyrrolidine-2-carboxylic acid], for which the “Maximum % activity (with co-corrector)” value is reported as “+++ (≥350)” and the “Maximum % activity (without co-corrector)” value is reported as “+++ (≥200)”. Further, under setting [1], the EC50 is under 1000 nM. The EC50 under setting [2] was under 1000 nM.
Take `COc1ncc(-c2ccccc2)cc1CO[C@H]1[C@H](C(C)(C)C)[C@@H](C(=O)O)N(C(=O)C2CCCCC2)[C@H]1c1ccccc1F` [Example 52, (2S,3R,4S,5S)-3-tert-butyl-1-(cyclohexanecarbonyl)-5-(2-fluorophenyl)-4-[(2-methoxy-5-phenylpyridin-3-yl)methoxy]pyrrolidine-2-carboxylic acid]: the “Maximum % activity (with co-corrector)” value is recorded as “+++ (≥350)” and the “Maximum % activity (without co-corrector)” value is “+ (<100)”. Besides, the 50% effective concentration (EC50) under setting [1] lay in the range of 1000 to 10000 nM. Besides, under setting [2], the EC50 is 1000 to 10000 nM.
With `COc1ncc(C(F)(F)F)cc1CO[C@H]1[C@H](C(C)(C)C)[C@@H](C(=O)O)N(C(=O)OC(C)C)[C@H]1c1ccccc1C1CCC1` [Example 101, (2S,3R,4S,5S)-3-tert-butyl-5-(2-cyclobutylphenyl)-4-{[2-methoxy-5-(trifluoromethyl)pyridin-3-yl]methoxy}-1-{[(propan-2-yl)oxy]carbonyl}pyrrolidine-2-carboxylic acid], the “Maximum % activity (with co-corrector)” value is “+++ (≥350)”; the “Maximum % activity (without co-corrector)” value is “++ (≥100 and <200)”. Further, under setting [1], the half-maximal effective concentration (EC50) fell in the range of 1000 to 10000 nM. Under setting [2], the EC50 fell in the range of 1000 to 10000 nM.
For the compound `COc1ncc(C(F)(F)F)cc1CO[C@@H]1[C@H](C(C)(C)C)[C@@H](C(=O)O)N(C(=O)[C@@H]2CCCO2)[C@H]1c1ccccc1Br` [Example 126, (2S,3R,4R,5S)-5-(2-bromophenyl)-3-tert-butyl-4-{[2-methoxy-5-(trifluoromethyl)pyridin-3-yl]methoxy}-1-[(2S)-oxolane-2-carbonyl]pyrrolidine-2-carboxylic acid], the “Maximum % activity (with co-corrector)” value is on record as “+ (<150)” and the “Maximum % activity (without co-corrector)” value is “+ (<100)”. In addition, the EC50 under setting [1] is over 10000 nM. In addition, under setting [2], the 50% effective concentration (EC50) was over 10000 nM.
For the compound `CC(C)Oc1ncccc1[C@H]1[C@@H](OCc2cc3cc(Br)ccc3o2)[C@H](C(C)(C)C)[C@@H](C(=O)O)N1C(=O)[C@@H]1CCCCO1` [Example 289, (2S,3R,4S,5S)-4-[(5-bromo-1-benzofuran-2-yl)methoxy]-3-tert-butyl-1-[(2S)-oxane-2-carbonyl]-5-{2-[(propan-2-yl)oxy]pyridin-3-yl}pyrrolidine-2-carboxylic acid], the “Maximum % activity (with co-corrector)” value is given as “+++ (≥350)” and the “Maximum % activity (without co-corrector)” value is given as “+ (<100)”. For the same compound, the 50% effective concentration (EC50) under setting [1] is 1000 to 10000 nM. Moreover, under setting [2], the EC50 was under 1000 nM.
Take `COc1nc2c(C)ccc(C)c2cc1CO[C@H]1[C@H](C(C)(C)C)[C@@H](C(=O)O)N(C(=O)[C@@H]2CCCCO2)[C@H]1c1ccccc1C` [Example 237, (2S,3R,4S,5S)-3-tert-butyl-4-[(2-methoxy-5,8-dimethylquinolin-3-yl)methoxy]-5-(2-methylphenyl)-1-[(2S)-oxane-2-carbonyl]pyrrolidine-2-carboxylic acid]: the “Maximum % activity (with co-corrector)” value is given as “+++ (≥350)” and the “Maximum % activity (without co-corrector)” value is “+++ (≥200)”. Moreover, under setting [1], the EC50 fell in the range of 1000 to 10000 nM. Besides, the half-maximal effective concentration (EC50) under setting [2] was under 1000 nM.

(Values after patent US10399940B2, “Substituted pyrrolidines and methods of use” (AbbVie S.à.r.l., priority 2016, dated 2019).)
